According to patent US8492614B2, “Plant biochemical systems and uses thereof” (The Board of Trustees of the University of Illinois, priority 2007, dated 2013):
Entries after “also recorded” stand apart in the source; their conditions may differ. Where two headings read alike, the source gives them in different places.

Experiments:
[1] = pH 7.4
[2] = tested on: etiolated Arabidopsis gcr1, gpa1 or pd1 mutants; experiment: UV sensitivity of etiolated Arabidopsis mutants with phenylalanine added to the growth media; assay type: in vivo
[3] = target: T1, prephenate dehydratase (PD1) (Arabidopsis thaliana, UniProt Q9ZUY3); experiment: Prephenate dehydratase activity in Arabidopsis cell free extracts; assay type: biochemical; settings: pre-incubation in various concentrations
T1 construct: from tissue; host or cells: aerial portions of etiolated (dark-grown) wild-type Col Arabidopsis seedlings; crude cell-free / cytosolic extract
T1 sequence (Q9ZUY3 25-424): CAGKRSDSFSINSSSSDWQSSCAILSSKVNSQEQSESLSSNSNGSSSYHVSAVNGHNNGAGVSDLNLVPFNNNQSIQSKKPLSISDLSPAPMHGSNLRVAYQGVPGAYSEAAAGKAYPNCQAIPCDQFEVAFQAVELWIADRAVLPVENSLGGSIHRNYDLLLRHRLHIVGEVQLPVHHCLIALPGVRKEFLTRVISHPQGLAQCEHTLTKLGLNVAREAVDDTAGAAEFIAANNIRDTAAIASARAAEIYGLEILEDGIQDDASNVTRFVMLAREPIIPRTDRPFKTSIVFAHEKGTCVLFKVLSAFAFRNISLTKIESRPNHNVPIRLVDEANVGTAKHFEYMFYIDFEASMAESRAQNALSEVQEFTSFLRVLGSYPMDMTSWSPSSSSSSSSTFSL
Description: 143:1590-1600). […] Absorbance and stability characteristics are tested at different pH concentrations between 6.8-8.0. Absorbance and stability characteristics are tested at different temperatures and durations of storage on the pigments and phenylalanine characteristics in solution for Arabidopsis and this is done for all crop plant types tested. The aerial portions of six-day-old dark grown Arabidopsis seedlings were harvested into potassium phosphate buffer (pH 7.5; 50 mM), DTT (1 mM), and plant protease cocktail (Sigma), and homogenized for 60 sec at a setting of #6 in a Polytron. Cell debris was removed by centrifugation. All steps were carried out at 4° C. All plants types would be harvested by this method between 6-8 days after planting in darkness. […] Production of phenylpyruvate was determined spectrophotometrically. […] See […] et al., Plant Physiol. 140:844-855.

[4] = tested on: soybean; experiment: Long-term growth and seed yield of UV-treated soybean supplemented with Phe; assay type: in vivo, soybean (Glycine max L.); settings: Phe supplement before UV (300 nm) on day 3, grown to seed set
Description: Referring to FIG. 22, it was shown that treating soybean with Phe reverses the negative effects of UV-radiation. Seedlings were grown identically to that described for FIGS. 13 and 14, where soybean were supplemented with Phe (+Phe) or not (−Phe). Soybean were grown to seed set in greenhouse conditions where growth characteristics and evaluation of pods and seeds occurred during and after ripening.

[5] = tested on: glabrous soybean seedlings; experiment: UV sensitivity of glabrous versus dense-hair soybean isolines; assay type: in vivo; settings: few-hair (glabrous) variety, small amounts of UV
Description: Varieties that show sensitivity to UV are retained for more detailed testing of responses to UV and exogenous regulators. […] As isoline of hard soy with dense hairs was tested vs. hard soy with few (glafrous) hairs. […] Isogenic lines of Harasoy “dense” (many hairs per area) and “glabrous” (few or no hairs per area) were used to see if hairs themselves directly assisted in protection from UV-B radiation. Seedlings were grown and treated in the same manner as that shown in FIG. 18, then the integrity of the internal structures assessed by TEM as shown in FIG. 18.

[6] = tested on: Japanese beetles; experiment: Predation on Harosoy soybean grown outside, with or without Phe in the planting media; assay type: in vivo; settings: 1 mM Phe in planting media; 300 nm or no light on day 3; 21 d outside; listed as Phe
Description: As Phe is the starting substrate of the phenylpropanoid pathway it may be that inclusion of Phe in the growth media of young seedlings allows for the synthesis of many phenylpropanoids in addition to those that can act as UV-B screening pigments, and thereby prevent the deleterious effects other abiotic and biotic stress. To test this hypothesis we planted sets of seeds of Harosoy dense and Harosoy glabrous. Planting media for one set of plants of each isoline was supplemented with 1 mM final concentration of Phe. Three d after planting, germinating sets of seedlings were irradiated with a low fluence pulse of 300 nm (i.e. an abiotic stress), or no light (Untreated), then transplanted outside to grow in natural conditions for 21 d during the normal growing season. A random planting pattern for was generated for the six One leaf from the first set of leaves and one leaf (the middle of the trifoliate) from the second set of leaves was harvested on day 21. These leaves were each weighed directly (fresh weight) and scanned to have a pictorial representation of the experienced damage as shown in FIG. 28. […] Comparison among the six variations indicates predation mainly on the glabrous (hairless) plants.

[7] = Stability of absorbance spectra of cell free extracts with or without phenylalanine; assay type: physicochemical, Arabidopsis; settings: for stability of the extract solution (absorbance spectra, pigments) over time: cell free extracts in buffer, 24 h, room temperature or +4° C., lab lighting
Description: Cell free extracts were left at room temperature for 24 h after a 10^5 μmol m^−2 treatment of UV (366 nm) in lab lighting (which is fluorescent).

- degradation in buffered solution [1]: appeared to not degrade even for days
- effect of pre-incubation on the reaction producing phenylalanine [3]: inhibited
- stability of the extract solution (absorbance spectra, pigments) over time ([7]; listed as Phenylalanine): remained stable
- deviation from initial 24 h post absorbance spectra ([7]; extracts with phenylalanine added, UV (366 nm) treated, stored at +4° C. for 4 days): less than 10%
SMILES: N[C@@H](Cc1ccccc1)C(=O)O [phenylalanine]
- rescue of UV sensitivity of mutants [2]: can rescue gcr1, gpa1 or pd1 mutants
- rescue of UV sensitivity of mutants ([2]; listed as Phe): restores waxes, fatty acids, UV-absorbing materials and restores resistance to UV damage in pd1 mutants; also recorded: able to respond to UV like wild type
- long-term growth, seed set and seed yield after UV treatment [4]: can reverse the negative effect on yield of UV; also recorded: serves a protective role to the plant in permitting the plant to achieve adult stage and seed set
- long-term growth, seed set and seed yield after UV treatment ([4]; listed as Phe): indistinguishable from untreated seedlings; also recorded: reversal of the negative effects of UV-radiation
- correction of UV damage in the glabrous variety [5]: can correct these deficiencies
- predation on leaves [6]: experienced less predation; also recorded: can be reduced
- stability of the extract solution (absorbance spectra, pigments) over time [7]: remain stable over time; also recorded: clear difference in stability in the solution when phenylalanine is added
